Results published in patent US20260193293A1, “PEPTIDES CAPABLE OF INHIBITING PROTEIN-PROTEIN INTERACTIONS AT GABAB1A SUBUNIT AND USES THEREOF” (UNIVERSITY OF COPENHAGEN, priority 2022, published 2026).
Where two headings read alike, the source gives them in different places. Non-standard residues stand in square brackets, D forms with d. Residues, ends and D or L forms follow the SMILES beside them. *: point of attachment. NMeW = CN[C@@H](Cc1c[nH]c2ccccc12)C(=O)O; 1Nal = N[C@@H](Cc1cccc2ccccc12)C(=O)O; 2Nal = N[C@@H](Cc1ccc2ccccc2c1)C(=O)O; NMeT = CN[C@H](C(=O)O)[C@@H](C)O; NMeE = CN[C@@H](CCC(=O)O)C(=O)O; Bn = c1ccc(C*)cc1

Target: Sushi domains (SD1/2) protein
Assay: Fluorescence polarization (FP) competition assay with AJAP-1probe, calculated Ki
Type: binding
Conditions: read-out: Ki (nM) mean ± SEM
In short: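 Ki values were derived from IC50s (sigmoidal fits, ≥ triplicate), with probe Kd obtained by saturation titration of SD1/2. Peptides displaced a 25 nM TAMRA-labelled probe; polarization read at 530/580 nm in 1% BSA-containing PBS, pH 7.4, room temperature.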

[1] = Table 7, Ala-, D-amino acids and N-methylation scans of APPWT
[2] = Table 8, Ala-, D-amino acids and N-methylation scans of AJAP-1WT
[3] = Table 5, elongation and truncation scan of AJAP-1 binding epitope
[4] = Table 16, ncAAs incorporated peptides
[5] = Table 11, deep mutational scanning validation variants of AJAP-1WT

`CC(=O)N(C)[C@@H](CCC(=O)O)C(=O)N[C@@H](CC(=O)O)C(=O)N[C@@H](CC(=O)O)C(=O)N[C@@H](CO)C(=O)N[C@@H](CC(=O)O)C(=O)N[C@H](C(=O)N[C@@H](Cc1c[nH]c2ccccc12)C(=O)N[C@@H](Cc1c[nH]c2ccccc12)C(=O)NCC(=O)NCC(=O)N[C@@H](C)C(=O)N[C@@H](CC(=O)O)C(=O)N[C@H](C(=O)N[C@@H](CC(=O)O)C(N)=O)[C@@H](C)O)C(C)C` (Ac-[NMeE]DDSDVWWGGADTD-NH2) was tested, and the Ki [1] was 670 ± 6 nM.
Molecule `CC[C@H](C)[C@H](NC(=O)[C@H](Cc1ccccc1)NC(=O)[C@H](CCC(=O)O)NC(=O)[C@@H](NC(=O)[C@H](CCC(=O)O)N(C)C(C)=O)[C@@H](C)O)C(=O)N[C@@H](C)C(=O)N[C@@H](Cc1c[nH]c2ccccc12)C(=O)NCC(=O)N1CCC[C@H]1C(=O)N[C@H](C(=O)NCC(=O)N[C@@H](CC(=O)O)C(=O)N[C@@H](CCC(=O)O)C(=O)N[C@@H](CC(=O)O)C(N)=O)[C@@H](C)O` [(N-Me-E)TEFIAWGPTGDED] (Ac-[NMeE]TEFIAWGPTGDED-NH2) has a Ki [2] of 35 ± 1 nM.
`CC[C@H](C)[C@H](NC(=O)[C@H](Cc1ccccc1)NC(=O)[C@H](CCC(=O)O)NC(=O)[C@@H](NC(=O)[C@H](C)NC(C)=O)[C@@H](C)O)C(=O)N[C@@H](C)C(=O)N[C@@H](Cc1c[nH]c2ccccc12)C(=O)NCC(=O)N1CCC[C@H]1C(=O)N[C@H](C(=O)NCC(=O)N[C@@H](CC(=O)O)C(=O)N[C@@H](CCC(=O)O)C(=O)N[C@@H](CC(=O)O)C(N)=O)[C@@H](C)O` [ATEFIAWGPTGDED] (Ac-ATEFIAWGPTGDED-NH2) showed a Ki [2] of 53 ± 2 nM.
Work on `CC[C@H](C)[C@H](NC(=O)[C@H](C)NC(=O)[C@H](Cc1c[nH]c2ccccc12)NC(=O)[C@H](C)NC(C)=O)C(=O)N[C@H](C(=O)N[C@@H](Cc1c[nH]c2ccccc12)C(=O)NCC(=O)N1CCC[C@H]1C(=O)N[C@H](C(=O)N[C@H](C(=O)N[C@@H](CO)C(=O)N[C@@H](CCCNC(=N)N)C(=O)N[C@@H](CCC(=O)O)C(=O)N[C@@H](CC(=O)O)C(N)=O)C(C)C)[C@@H](C)O)C(C)C` [AWAIVWGPTVSRED] (Ac-AWAIVWGPTVSRED-NH2) yielded a Ki (Table 9, Ala-, D-amino acids and N-methylation scans of PIANPWT) of 552 ± 20 nM.
In the case of `CC(=O)N[C@@H](C)C(=O)N[C@@H](Cc1c[nH]c2ccccc12)C(=O)NCC(=O)N1CCC[C@H]1C(=O)N[C@H](C(=O)NCC(=O)N[C@@H](CC(=O)O)C(=O)N[C@@H](CCC(=O)O)C(=O)N[C@@H](CC(=O)O)C(N)=O)[C@@H](C)O` [AWGPTGDED] (Ac-AWGPTGDED-NH2), the Ki [3] is reported as greater than 125000 nM.
`CC[C@H](C)[C@H](NC(=O)[C@H](C)NC(=O)[C@H](Cc1c[nH]c2ccccc12)NC(=O)[C@H](CC(=O)O)NC(C)=O)C(=O)N[C@H](C(=O)N[C@@H](Cc1c[nH]c2ccccc12)C(=O)NCC(=O)N1CCC[C@H]1C(=O)N[C@H](C(=O)N[C@H](C(=O)N[C@@H](CO)C(=O)N[C@@H](CCCNC(=N)N)C(=O)N[C@@H](CCC(=O)O)C(=O)N[C@@H](CC(=O)O)C(N)=O)C(C)C)[C@@H](C)O)C(C)C` [DWAIVWGPTVSRED] (Ac-DWAIVWGPTVSRED-NH2) showed a Ki (Table 12, deep mutational scanning validation variants of PIANPWT) of 338 ± 1 nM.
In the case of `CC[C@H](C)[C@H](NC(=O)[C@H](Cc1ccccc1)NC(=O)[C@H](CCC(=O)O)NC(=O)[C@H]([C@@H](C)O)N(C)C(=O)[C@H](CCC(=O)O)NC(C)=O)C(=O)N[C@@H](C)C(=O)N[C@@H](Cc1c[nH]c2ccccc12)C(=O)NCC(=O)N1CCC[C@H]1C(=O)N[C@H](C(=O)NCC(=O)N[C@@H](CC(=O)O)C(=O)N[C@@H](CCC(=O)O)C(=O)N[C@@H](CC(=O)O)C(N)=O)[C@@H](C)O` [E(N-Me-T)EFIAWGPTGDED] (Ac-E[NMeT]EFIAWGPTGDED-NH2), the Ki [2] is reported as 37 ± 2 nM.
`CC[C@H](C)[C@H](NC(=O)[C@H](Cc1ccccc1)NC(=O)[C@H](CCC(=O)O)NC(=O)[C@H](C)NC(=O)[C@H](CCC(=O)O)NC(C)=O)C(=O)N[C@@H](C)C(=O)N[C@@H](Cc1c[nH]c2ccccc12)C(=O)NCC(=O)N1CCC[C@H]1C(=O)N[C@H](C(=O)NCC(=O)N[C@@H](CC(=O)O)C(=O)N[C@@H](CCC(=O)O)C(=O)N[C@@H](CC(=O)O)C(N)=O)[C@@H](C)O` [EAEFIAWGPTGDED] (Ac-EAEFIAWGPTGDED-NH2) showed a Ki [2] of 34 ± 3 nM.
With `CC(=O)N[C@@H](CCC(=O)O)C(=O)N[C@@H](CC(=O)O)C(=O)N[C@@H](CC(=O)O)C(=O)N[C@@H](CO)C(=O)N[C@@H](CC(=O)O)C(=O)N[C@H](C(=O)N(C)[C@@H](Cc1c[nH]c2ccccc12)C(=O)N[C@@H](Cc1c[nH]c2ccccc12)C(=O)NCC(=O)NCC(=O)N[C@@H](C)C(=O)N[C@@H](CC(=O)O)C(=O)N[C@H](C(=O)N[C@@H](CC(=O)O)C(N)=O)[C@@H](C)O)C(C)C` [EDDSDV(N-Me-W)WGGADTD] (Ac-EDDSDV[NMeW]WGGADTD-NH2) the Ki [1] was 85600 ± 10100 nM.
In the case of `CC(=O)N[C@@H](CCC(=O)O)C(=O)N[C@@H](CC(=O)O)C(=O)N[C@@H](CC(=O)O)C(=O)N[C@@H](CO)C(=O)N[C@@H](CC(=O)O)C(=O)N[C@H](C(=O)N[C@@H](Cc1c[nH]c2ccccc12)C(=O)N[C@@H](Cc1cccc2ccccc12)C(=O)NCC(=O)NCC(=O)N[C@@H](C)C(=O)N[C@@H](CC(=O)O)C(=O)N[C@H](C(=O)N[C@@H](CC(=O)O)C(N)=O)[C@@H](C)O)C(C)C` [EDDSDVW(1Nala)GGADTD] (Ac-EDDSDVW[1Nal]GGADTD-NH2), the Ki [4] is reported as 499 ± 17 nM.
`CC(=O)N[C@@H](CCC(=O)O)C(=O)N[C@@H](CC(=O)O)C(=O)N[C@@H](CC(=O)O)C(=O)N[C@@H](CO)C(=O)N[C@@H](CC(=O)O)C(=O)N[C@H](C(=O)N[C@@H](Cc1c[nH]c2ccccc12)C(=O)N[C@@H](Cc1ccc2ccccc2c1)C(=O)NCC(=O)NCC(=O)N[C@@H](C)C(=O)N[C@@H](CC(=O)O)C(=O)N[C@H](C(=O)N[C@@H](CC(=O)O)C(N)=O)[C@@H](C)O)C(C)C` [EDDSDVW(2Nala)GGADTD] (Ac-EDDSDVW[2Nal]GGADTD-NH2) was tested, and the Ki [4] was 814 ± 10 nM.
`CC(=O)N[C@@H](CCC(=O)O)C(=O)N[C@@H](CC(=O)O)C(=O)N[C@@H](CC(=O)O)C(=O)N[C@@H](CO)C(=O)N[C@@H](CC(=O)O)C(=O)N[C@H](C(=O)N[C@@H](Cc1c[nH]c2ccccc12)C(=O)N(C)[C@@H](Cc1c[nH]c2ccccc12)C(=O)NCC(=O)NCC(=O)N[C@@H](C)C(=O)N[C@@H](CC(=O)O)C(=O)N[C@H](C(=O)N[C@@H](CC(=O)O)C(N)=O)[C@@H](C)O)C(C)C` [EDDSDVW(N-Me-W)GGADTD] (Ac-EDDSDVW[NMeW]GGADTD-NH2) was tested, and the Ki [1] was 1380 ± 16 nM.
For `CC(=O)N[C@@H](CCC(=O)O)C(=O)N[C@@H](CC(=O)O)C(=O)N[C@@H](CC(=O)O)C(=O)N[C@@H](CO)C(=O)N[C@@H](CC(=O)O)C(=O)N[C@H](C(=O)N[C@@H](Cc1c[nH]c2ccccc12)C(=O)N[C@@H](Cc1ccc(OCc2ccccc2)cc1)C(=O)NCC(=O)NCC(=O)N[C@@H](C)C(=O)N[C@@H](CC(=O)O)C(=O)N[C@H](C(=O)N[C@@H](CC(=O)O)C(N)=O)[C@@H](C)O)C(C)C` [EDDSDVW(Obtyr)GGADTD] (Ac-EDDSDVWY(Bn)GGADTD-NH2), the Ki [4] was 3860 ± 62 nM.
`CC(=O)N[C@@H](CCC(=O)O)C(=O)N[C@@H](CC(=O)O)C(=O)N[C@@H](CC(=O)O)C(=O)N[C@@H](CO)C(=O)N[C@@H](CC(=O)O)C(=O)N[C@H](C(=O)N[C@@H](Cc1c[nH]c2ccccc12)C(=O)N[C@@H](Cc1c[nH]c2ccccc12)C(=O)NCC(=O)NCC(=O)N[C@@H](C)C(=O)N[C@@H](CC(=O)O)C(=O)N[C@@H](CCC(=O)O)C(=O)N[C@@H](CC(=O)O)C(N)=O)C(C)C` [EDDSDVWWGGADED] (Ac-EDDSDVWWGGADED-NH2) gave a Ki (Table 10, deep mutational scanning validation variants of APPWT) of 337 ± 10 nM.
For `CC[C@H](C)[C@H](NC(=O)[C@H](Cc1ccccc1)NC(=O)[C@H](CCC(=O)O)NC(C)=O)C(=O)N[C@@H](C)C(=O)N[C@@H](Cc1c[nH]c2ccccc12)C(=O)NCC(=O)N1CCC[C@H]1C(=O)N[C@H](C(=O)NCC(=O)N[C@@H](CC(=O)O)C(=O)N[C@@H](CCC(=O)O)C(=O)N[C@@H](CC(=O)O)C(N)=O)[C@@H](C)O` [EFIAWGPTGDED] (Ac-EFIAWGPTGDED-NH2), the Ki [3] was 112 ± 1 nM.
`CC[C@H](C)[C@H](NC(=O)[C@H](Cc1ccccc1)NC(=O)[C@H](CCC(=O)O)NC(=O)[C@@H](NC(=O)[C@H](CCC(=O)O)NC(C)=O)[C@@H](C)CC)C(=O)N[C@@H](C)C(=O)N[C@@H](Cc1c[nH]c2ccccc12)C(=O)NCC(=O)N1CCC[C@H]1C(=O)N[C@H](C(=O)NCC(=O)N[C@@H](CC(=O)O)C(=O)N[C@@H](CCC(=O)O)C(=O)N[C@@H](CC(=O)O)C(N)=O)[C@@H](C)O` [EIEFIAWGPTGDED] was tested, and the Ki [5] was 22 ± 1 nM.
With `CC[C@H](C)[C@H](NC(=O)[C@H](Cc1ccccc1)NC(=O)[C@H](CCC(=O)O)N(C)C(=O)[C@@H](NC(=O)[C@H](CCC(=O)O)NC(C)=O)[C@@H](C)O)C(=O)N[C@@H](C)C(=O)N[C@@H](Cc1c[nH]c2ccccc12)C(=O)NCC(=O)N1CCC[C@H]1C(=O)N[C@H](C(=O)NCC(=O)N[C@@H](CC(=O)O)C(=O)N[C@@H](CCC(=O)O)C(=O)N[C@@H](CC(=O)O)C(N)=O)[C@@H](C)O` [ET(N-Me-E)FIAWGPTGDED] (Ac-ET[NMeE]FIAWGPTGDED-NH2) the Ki [2] was 159 ± 3 nM.
Molecule `CC[C@H](C)[C@H](NC(=O)[C@H](Cc1ccccc1)NC(=O)[C@H](C)NC(=O)[C@@H](NC(=O)[C@H](CCC(=O)O)NC(C)=O)[C@@H](C)O)C(=O)N[C@@H](C)C(=O)N[C@@H](Cc1c[nH]c2ccccc12)C(=O)NCC(=O)N1CCC[C@H]1C(=O)N[C@H](C(=O)NCC(=O)N[C@@H](CC(=O)O)C(=O)N[C@@H](CCC(=O)O)C(=O)N[C@@H](CC(=O)O)C(N)=O)[C@@H](C)O` [ETAFIAWGPTGDED] (Ac-ETAFIAWGPTGDED-NH2) has a Ki [2] of 49 ± 2 nM.
With `CC[C@H](C)[C@H](NC(=O)[C@H](Cc1ccccc1)NC(=O)[C@H](CC(=O)O)NC(=O)[C@@H](NC(=O)[C@H](CCC(=O)O)NC(C)=O)[C@@H](C)O)C(=O)N[C@@H](C)C(=O)N[C@@H](Cc1c[nH]c2ccccc12)C(=O)NCC(=O)N1CCC[C@H]1C(=O)N[C@H](C(=O)NCC(=O)N[C@@H](CC(=O)O)C(=O)N[C@@H](CCC(=O)O)C(=O)N[C@@H](CC(=O)O)C(N)=O)[C@@H](C)O` [ETDFIAWGPTGDED] (Ac-ETDFIAWGPTGDED-NH2) the Ki [5] was 26 ± 1 nM.
